Experimental data: PMC10321483 (Chemical Science, 2023)
Where “and” joins values, the source holds several entries; their conditions need not be identical. Equal values may be shown once. Read-outs that look alike come from different tables or passages of the source.

Experiments:
BlaC = target: T1, BlaC (Mycobacterium tuberculosis, UniProt P9WKD3); experiment: BlaC fluorogenic inhibition assay with FC5 (dose-response); type: biochemical
T1 construct: made in house; host or cells: E. coli
Protocol: Two types of controls were used. […] In control 2, the BlaC mixture was substituted with the assay buffer. This mixture was incubated for 30 minutes at room temperature without shaking. […] Data were analysed using ActivityBase (IDBS).

LdtMt2 [1] = target: T2, LdtMt2 (Mycobacterium tuberculosis, UniProt I6Y9J2); experiment: biochemical; type: biochemical; design: made in house; host or cells: E. coli
LdtMt2 [2] = target: T2, LdtMt2; experiment: biochemical; type: binding; design: made in house; host or cells: E. coli
Protocol: LdtMt2 (5 μM) was incubated with the inhibitor (500 μM) in assay buffer (50 mM tris pH 7.5) for 30 minutes at room temperature in 96-well white PCR plates (25 μL final volume, Starlab). SYPRO Orange (final concentration 6×, according to manufacturer's definition, Invitrogen) was then added and the plate was sealed using a transparent plastic film (Polyolefin StarSeal, Starlab). Fluorescence was monitored (with λex = 492 nm and λem = 610 nm) using a CFX96 Touch Real-Time PCR Detection System (Bio-Rad), while the temperature was increased from 20 to 95 °C in increments of 0.2 °C. Melting temperatures (Tms) were determined using the CFX Maestro Software (Bio-Rad).

[3] = Table S5 HTS hits, 30 minute inhibitor pre-incubation, two independent repeats
[4] = Table S3 tool compounds, 10 min incubation, 2.5 nM BlaC, 2.5 µM FC5, n=4, read-out: pIC50 BlaC (mean ± SD) (converted)
[5] = Table S4 HTS validation, 30 minutes inhibitor pre-incubation, n=8, read-out: pIC50 BlaC (mean ± SD) (converted)
[6] = Table S4 HTS validation, 30 minutes inhibitor pre-incubation, n=6, read-out: pIC50 LdtMt2 (mean ± SD) (converted)
[7] = Table S3 tool compounds, 10 min incubation, 2.5 nM BlaC, 2.5 µM FC5, n=4
[8] = Table S4 HTS validation, 30 minutes inhibitor pre-incubation, n=6

T2 sequence (I6Y9J2 56-408): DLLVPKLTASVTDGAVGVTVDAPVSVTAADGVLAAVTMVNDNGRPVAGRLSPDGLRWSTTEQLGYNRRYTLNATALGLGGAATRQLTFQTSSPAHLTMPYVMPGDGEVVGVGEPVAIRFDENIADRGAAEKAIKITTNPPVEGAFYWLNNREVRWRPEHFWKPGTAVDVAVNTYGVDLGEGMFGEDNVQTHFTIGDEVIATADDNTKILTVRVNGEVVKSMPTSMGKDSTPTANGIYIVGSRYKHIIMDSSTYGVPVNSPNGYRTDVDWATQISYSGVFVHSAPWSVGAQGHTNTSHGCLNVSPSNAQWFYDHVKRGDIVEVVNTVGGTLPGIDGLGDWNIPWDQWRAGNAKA
T1 sequence (P9WKD3 35-307): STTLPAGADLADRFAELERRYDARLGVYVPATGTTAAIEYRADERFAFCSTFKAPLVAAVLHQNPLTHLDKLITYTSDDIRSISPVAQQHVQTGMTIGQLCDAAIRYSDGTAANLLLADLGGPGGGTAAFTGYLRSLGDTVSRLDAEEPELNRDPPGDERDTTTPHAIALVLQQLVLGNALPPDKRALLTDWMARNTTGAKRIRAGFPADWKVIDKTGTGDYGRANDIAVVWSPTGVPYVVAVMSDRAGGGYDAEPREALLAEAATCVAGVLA

Cc1ccccc1NC(=O)C=CC(N)=O [Compound 14]
pIC50 BlaC (BlaC; [3]): < 4.0
LE (ligand efficiency) (LdtMt2 [1]): 0.75
ΔTm: difference in melting point of LdtMt2 relative to unreacted LdtMt2 (43.8 °C) (LdtMt2 [2]): +1.1
Tm: melting point of LdtMt2 after pre-incubation with the compound (LdtMt2 [2]; pH 7.5, in °C (unit assumed)): 44.9 ± 0.09

CO/N=C(\C(=O)N[C@@H]1C(=O)N2C(C(=O)O)=C(COC(C)=O)CS[C@H]12)c1csc(N)n1 [Cefotaxime, reference compound]
IC50 (BlaC; [4]): > 100000 nM
IC50 (LdtMt2 [1]; pIC50 LdtMt2 (mean ± SD)): > 100000 nM

CC1(C)S[C@@H]2[C@H](NC(=O)[C@H](C(=O)O)c3ccsc3)C(=O)N2[C@H]1C(=O)O [Ticarcillin, reference compound]
IC50 (BlaC; [4]): 11700 nM
IC50 (BlaC; [5]): 14500 nM
IC50 (LdtMt2 [1]; [6]): 44700 nM
IC50 (LdtMt2 [1]; pIC50 LdtMt2 (mean ± SD)): > 100000 nM

CO/N=C(\C(=O)N[C@@H]1C(=O)N2C(C(=O)O)=C(CSC(=O)c3ccco3)CS[C@H]12)c1csc(N)n1 [Ceftiofur, reference compound]
IC50 (BlaC; [4]): > 100000 nM
IC50 (LdtMt2 [1]; pIC50 LdtMt2 (mean ± SD)): > 100000 nM

C[C@@H](O)[C@H]1C(=O)N2C(C(=O)O)=C(S[C@@H]3CN[C@H](C(=O)Nc4cccc(C(=O)O)c4)C3)[C@H](C)[C@H]12 [Ertapenem, reference compound]
IC50 (BlaC; [4]): 178 nM
IC50 (BlaC; [5]): 67.6 nM
IC50 (LdtMt2 [1]; [6]): 776 nM
IC50 (LdtMt2 [1]; pIC50 LdtMt2 (mean ± SD)): 1580 nM

NC(=O)CI [Iodoacetamide, reference compound]
pIC50 BlaC (mean ± SD) (BlaC; [7]): < 4.0
pIC50 LdtMt2 (mean ± SD) (LdtMt2 [1]): 5.8 ± 0.03
pIC50 LdtMt2 (mean ± SD) (LdtMt2 [1]; [8]): 6.05 ± 0.03

O=C1C=CC(=O)N1 [Maleimide, reference compound]
IC50 (BlaC; pIC50 BlaC (mean ± SD), Table S3 tool compounds, 10 min incubation, 2.5 nM BlaC, 2.5 µM FC5, n=4): > 100000 nM
IC50 (LdtMt2 [1]; pIC50 LdtMt2 (mean ± SD)): 3980 nM and 2240 nM

C[C@@H](O)[C@H]1C(=O)N2C(C(=O)O)=C([C@H]3CCCO3)S[C@H]12 [Faropenem]
IC50 (BlaC; [4]): 447 nM
IC50 (BlaC; [5]): 468 nM

N#Cn1c(N2CCSCC2)nc2ccccc21 [Compound 27]
pIC50 BlaC (BlaC; [3]): < 4.0
LE (ligand efficiency) (LdtMt2 [1]): 0.66
ΔTm: difference in melting point of LdtMt2 relative to unreacted LdtMt2 (43.8 °C) (LdtMt2 [2]): -1.3
Tm: melting point of LdtMt2 after pre-incubation with the compound (LdtMt2 [2]; pH 7.5, in °C (unit assumed)): 42.5 ± 0.09

N#Cn1c(-c2ccncc2)nc2ccc(-c3cccnc3)cc21 [Compound 35]
LE (ligand efficiency) (LdtMt2 [1]): 0.49
ΔTm: difference in melting point of LdtMt2 relative to unreacted LdtMt2 (43.8 °C) (LdtMt2 [2]): -0.9
Tm: melting point of LdtMt2 after pre-incubation with the compound (LdtMt2 [2]; pH 7.5, in °C (unit assumed)): 42.9 ± 0.34

Cn1c(SCC2=C(C(=O)O)N3C(=O)[C@@H](NC(=O)COc4ccccc4)[C@H]3SC2)n[nH]c1=O [Compound 19]
IC50 (BlaC; Table S5 HTS hits, 30 minute inhibitor pre-incubation, two independent repeats, read-out: pIC50 BlaC (converted)): > 100000 nM
LE (ligand efficiency) (LdtMt2 [1]; Table S5, for LdtMt2): 0.35
IC50 (LdtMt2 [1]; Table S5 HTS hits, 30 minute inhibitor pre-incubation, two independent repeats, read-out: pIC50 LdtMt2 (converted)): 2400 nM and 2400 to 2820 nM
Tm: melting point of LdtMt2 after pre-incubation with the compound (LdtMt2 [2]; 5 µM LdtMt2, 500 µM inhibitor, SYPRO Orange, 50 mM Tris pH 7.5): 42.9 ± 0.09 °C
ΔTm at 500 µM (LdtMt2 [2]; read-out: ΔTm: difference in melting point of LdtMt2 relative to unreacted LdtMt2 (43.8 °C)): -0.9 °C

CNC(C)C(=O)NC1CCN(c2ccc(N3CCCC3)cc2C#N)C1 (stereo not drawn) [Compound 38]
pIC50 BlaC (BlaC; [3]): < 4.0
LE (ligand efficiency) (LdtMt2 [1]): 0.45
ΔTm: difference in melting point of LdtMt2 relative to unreacted LdtMt2 (43.8 °C) (LdtMt2 [2]): -1.0
Tm: melting point of LdtMt2 after pre-incubation with the compound (LdtMt2 [2]; pH 7.5, in °C (unit assumed)): 42.8 ± 0.00

N#CSc1ccc([N+](=O)[O-])c(C(=O)O)c1 [Compound 44, 2-nitro-5-thiocyanobenzoic acid, reference compound]
IC50 (LdtMt2 [1]; Table S10 known cyanating compounds, read-out: pIC50 LdtMt2 (converted)): 1450 nM

CN(C)c1cc[n+](C#N)cc1 [Compound 43, 1-cyano-4-dimethylaminopyridinium tetrafluoroborate, reference compound]
IC50 (LdtMt2 [1]; pIC50 LdtMt2): 5010 nM

CC(=N)N1CC[C@H](SC2=C(C(=O)O)N3C(=O)[C@H]([C@@H](C)O)[C@H]3C2)C1 [Panipenem, reference compound]
IC50 (BlaC; [4]): 166 nM
IC50 (BlaC; [5]): 93.3 nM
IC50 (LdtMt2 [1]; [6]): 1230 nM
IC50 (LdtMt2 [1]; pIC50 LdtMt2 (mean ± SD)): 316 nM

N#Cn1nnc2ccccc21 [Compound 42, reference compound]
pIC50 LdtMt2 (LdtMt2 [1]): 6.02 ± 0.05

C[C@@H](O)[C@H]1C(=O)N2C(C(=O)O)=C(S[C@H]3CC[S@@+]([O-])C3)S[C@H]12 [Sulopenem, reference compound]
pIC50 BlaC (mean ± SD) (BlaC; [7]): 6.60 ± 0.12
pIC50 BlaC (mean ± SD) (BlaC; Table S4 HTS validation, 30 minutes inhibitor pre-incubation, n=8): 6.86 ± 0.02
pIC50 LdtMt2 (mean ± SD) (LdtMt2 [1]): 6.2 ± 0.03
pIC50 LdtMt2 (mean ± SD) (LdtMt2 [1]; [8]): 6.35 ± 0.02

Cc1onc(-c2ccccc2)c1C(=O)N[C@@H]1C(=O)N2[C@@H]1SC(C)(C)[C@@H]2C(=O)O [Oxacillin, reference compound]
IC50 (BlaC; [4]): 158 nM
IC50 (BlaC; [5]): 67.6 nM
IC50 (LdtMt2 [1]; [6]): 6030 nM
IC50 (LdtMt2 [1]; pIC50 LdtMt2 (mean ± SD)): 63100 nM

CC(C)(O/N=C(\C(=O)N[C@@H]1C(=O)N2C(C(=O)[O-])=C(C[n+]3ccccc3)CS[C@H]12)c1csc(N)n1)C(=O)O [Ceftazidime]
IC50 (BlaC; [4]): 39800 nM
IC50 (BlaC; [5]): 12000 nM
IC50 (LdtMt2 [1]; pIC50 LdtMt2 (mean ± SD)): > 100000 nM
